The text below walks through data of patent US20250382344A1, “Soluble GLP1/GIP/NPY2 Receptor Triple Agonists” (Boehringer Ingelheim International GmH, priority 2024, published 2025).

Read-outs that look alike come from different tables or passages of the source. Where a SMILES comes first, the peptide text is derived from it. Side-chain parts run from the residue outwards. [ ]: non-standard residue; d: D form. The star is where a group is joined. ξ: configuration not given here. C18 diacid = O=C(O)CCCCCCCCCCCCCCCCC(=O)*; NMeY = CN[C@@H](Cc1ccc(O)cc1)C(=O)O; Palmitoyl = CCCCCCCCCCCCCCCC(=O)*; αMeF = C[C@](N)(Cc1ccccc1)C(=O)O; ξIva = CCC(C)(N)C(=O)O; Aib = CC(C)(N)C(=O)O

For one series, the target named is T1, hGIPR (Homo sapiens, UniProt P48546).
T1 construct: expressed in transfected cells; host or cells: CHO CRE-luciferase reporter cells
T1 sequence (P48546 22-466): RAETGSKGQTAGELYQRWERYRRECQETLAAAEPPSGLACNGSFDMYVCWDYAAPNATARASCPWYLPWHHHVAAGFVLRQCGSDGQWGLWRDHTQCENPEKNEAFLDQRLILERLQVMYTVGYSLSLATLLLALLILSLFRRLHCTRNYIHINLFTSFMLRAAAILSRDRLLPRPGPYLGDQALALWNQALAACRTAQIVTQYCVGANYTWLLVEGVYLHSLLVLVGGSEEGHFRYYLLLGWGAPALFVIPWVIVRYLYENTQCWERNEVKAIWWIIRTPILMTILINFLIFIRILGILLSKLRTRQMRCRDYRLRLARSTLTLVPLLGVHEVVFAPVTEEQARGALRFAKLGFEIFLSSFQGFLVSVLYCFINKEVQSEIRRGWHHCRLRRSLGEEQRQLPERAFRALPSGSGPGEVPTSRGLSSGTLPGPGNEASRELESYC
The series is described as follows: hGIPR CreLuc assay in 0.5% and 100% plasma (CHO CRE-luciferase reporter cells). It counts as cell-based. The text has this: CHO and HEK-293 recombinant cell lines express a luciferase reporter gene under control of the CAMP responsive element (CRE). As a second recombinant protein the GLP-1 and NPY2 receptors were expressed in the reporter gene HEK cells, and the GIP receptor was expressed in the reporter gene CHO cells, respectively. Stimulation of these recombinant cells with an agonist leads to an increase of intracellular CAMP levels. In the presence of CAMP, the transcription factor CRE binding protein (CREB) binds to the CRE and to the CREB binding protein (CBP), which leads to transcription of the luciferase reporter gene. Peptides upon serial-dilution in 100% DMSO were transferred into 384-well assay plates with 5 μl pre-dispensed assay buffer (1×HBSS, 20 mM HEPES, pH7.4 supplemented with 0.5% human plasma) using acoustic dispensing on a Labcyte ECHO. Cryo-preserved transgenic reporter gene cells were thawed in assay buffer. 20 μl (10.000 cells/well) were added to the plate with the peptides and incubated for 4 hours at 37° C. in a humidified incubator. Following incubation, assay plates are equilibrated to room temperature, followed by addition of 25 μl of Bright-Glo™ Luciferase reagent, incubation at room temperature for 10 minutes and analysis of luminescence (Envision Reader). […] EC50 values were calculated by non-linear regression using sigmoid concentration-response with variable slope.
The same assays were run in the presence of 100% plasma with no additional buffer constituents.

Series [1] in a line: Solubility in 0.1 M phosphate buffer at pH 7. It counts as physicochemical. To be noted: 0.1 M phosphate buffer at pH 7, 10 mg/mL final peptide concentration, shaking 2 hours at room temperature, peptides as TFA-salts; measured sample pH 6.5-7.0.

Regarding `CC[C@H](C)[C@H](NC(=O)[C@H](CC(C)C)NC(=O)[C@H](Cc1c[nH]cn1)NC(=O)[C@H](CCCNC(=N)N)NC(=O)[C@@H](NC(=O)[C@H](Cc1ccccc1)NC(=O)[C@H](C)NC(=O)C(C)(C)NC(=O)[C@H](CCC(N)=O)NC(=O)[C@H](C)NC(=O)[C@H](CCC(N)=O)NC(=O)[C@H](CCCCN)NC(=O)[C@H](CCC(=O)O)NC(=O)[C@H](CC(C)C)NC(=O)C(C)(C)NC(=O)[C@@H](NC(=O)[C@H](CO)NC(=O)[C@H](CC(C)C)NC(=O)[C@H](CC(=O)O)NC(=O)[C@H](CO)NC(=O)[C@@H](NC(=O)[C@H](Cc1ccccc1)NC(=O)[C@@H](NC(=O)CNC(=O)[C@H](CCC(=O)O)NC(=O)C(C)(C)NC(=O)[C@@H](N)Cc1ccc(O)cc1)[C@@H](C)O)[C@@H](C)O)[C@@H](C)CC)C(C)C)C(=O)N[C@@H](CC(N)=O)C(=O)N[C@@H](CCCCNC(=O)CCCCCNC(=O)CCCCCNC(=O)CC[C@H](NC(=O)CC[C@H](NC(=O)CC[C@H](NC(=O)CC[C@H](NC(=O)CC[C@H](NC(=O)CCCCCCCCCCCCCCCCCCC(=O)O)C(=O)O)C(=O)O)C(=O)O)C(=O)O)C(=O)O)C(=O)NC(C)(C)C(=O)N[C@H](C(=O)N[C@@H](CCCNC(=N)N)C(=O)N[C@@H](CCC(N)=O)C(=O)N[C@@H](CCCNC(=N)N)C(=O)N[C@@H](Cc1ccc(O)cc1)C(N)=O)[C@@H](C)O` [Compound 1, Y-Aib-E-G-T-F-T-S-D-L-S-I-Aib-L-E-K-Q-A-Q-Aib-A-F-V-R-H-L-I-N-K(1,3)-Aib-T-R-Q-R-Y-NH2.C20DA-gGlu-gGlu-gGlu-gGlu-gGlu-AHX-AHX(1,2)], the EC50 came out at 0.2 nM at hGIPR (hGIPR 0.5% hP (nM), 0.5% human plasma) and 10.3 nM on hGIPR (hGIPR 100% hP (nM), 100% human plasma). In series [1], the solubility at 2 h was found to be 9800 µg/mL.
Regarding `CC[C@H](C)[C@H](NC(=O)[C@H](CC(C)C)NC(=O)[C@H](Cc1c[nH]cn1)NC(=O)[C@H](CCCNC(=N)N)NC(=O)[C@@H](NC(=O)[C@H](Cc1ccccc1)NC(=O)[C@H](C)NC(=O)C(C)(C)NC(=O)[C@H](CCC(N)=O)NC(=O)[C@H](C)NC(=O)[C@H](C)NC(=O)[C@H](CCCCN)NC(=O)[C@H](CCC(=O)O)NC(=O)[C@H](CC(C)C)NC(=O)C(C)(C)NC(=O)[C@@H](NC(=O)[C@H](CO)NC(=O)[C@H](Cc1ccc(O)cc1)NC(=O)[C@H](CC(=O)O)NC(=O)[C@H](CO)NC(=O)[C@@H](NC(=O)[C@H](Cc1ccccc1)NC(=O)[C@@H](NC(=O)CNC(=O)[C@H](CCC(=O)O)NC(=O)C(C)(C)NC(=O)[C@@H](N)Cc1ccc(O)cc1)[C@@H](C)O)[C@@H](C)O)[C@@H](C)CC)C(C)C)C(=O)N[C@@H](CC(N)=O)C(=O)N[C@@H](CCCCNC(=O)[C@@H](N)CCCCNC(=O)CC[C@H](NC(=O)CC[C@H](NC(=O)CC[C@H](NC(=O)CC[C@H](NC(=O)CC[C@H](NC(=O)CC[C@H](NC(=O)CCCCCCCCCCCCCCCCCCC(=O)O)C(=O)O)C(=O)O)C(=O)O)C(=O)O)C(=O)O)C(=O)O)C(=O)NC(C)(C)C(=O)N[C@H](C(=O)N[C@@H](CCCNC(=N)N)C(=O)N[C@@H](CCC(N)=O)C(=O)N[C@@H](CCCNC(=N)N)C(=O)N[C@@H](Cc1ccc(O)cc1)C(N)=O)[C@@H](C)O` [Compound 4, Y-Aib-E-G-T-F-T-S-D-Y-S-I-Aib-L-E-K-A-A-Q-Aib-A-F-V-R-H-L-I-N-K(1,3)-Aib-T-R-Q-R-Y-NH2.C20DA-gGlu-gGlu-gGlu-gGlu-gGlu-gGlu-eLys(1,2)], the EC50 on hGIPR (0.5% human plasma, read-out: hGIPR 0.5% hP) came to 0.3 nM; at hGIPR (100% human plasma, read-out: hGIPR 100% hP) it was 11.5 nM. The solubility at 2 h in series [1] is 10000 µg/mL.
In the case of `CCCCCCCCCCCCCCCC(=O)NCC(=O)NCC(=O)NCC(=O)NCC(=O)NCCCC[C@H](NC(=O)[C@H](CC(=O)O)NC(=O)[C@H](CO)NC(=O)[C@@H](NC(=O)[C@](C)(Cc1ccccc1)NC(=O)[C@@H](NC(=O)CNC(=O)[C@H](CCC(=O)O)NC(=O)C(C)(C)NC(=O)[C@H](Cc1ccc(O)cc1)NC)[C@@H](C)O)[C@@H](C)O)C(=O)N[C@@H](CO)C(=O)N[C@H](C(=O)NC(C)(C)C(=O)N[C@@H](CC(C)C)C(=O)N[C@@H](CCC(=O)O)C(=O)N[C@@H](CCCCN)C(=O)N[C@@H](CCC(N)=O)C(=O)N[C@@H](CCCNC(=N)N)C(=O)N[C@@H](CCC(N)=O)C(=O)NC(C)(CC)C(=O)N[C@@H](CCC(=O)O)C(=O)N[C@@H](Cc1ccccc1)C(=O)N[C@H](C(=O)N[C@@H](CCCNC(=N)N)C(=O)N[C@@H](Cc1c[nH]cn1)C(=O)N[C@@H](CC(C)C)C(=O)N[C@@H](CC(C)C)C(=O)N[C@@H](CC(N)=O)C(=O)N[C@@H](CCCCN)C(=O)NC(C)(C)C(=O)N[C@H](C(=O)N[C@@H](CCCNC(=N)N)C(=O)N[C@@H](CCC(N)=O)C(=O)N[C@@H](CCCNC(=N)N)C(=O)N[C@@H](Cc1ccc(O)cc1)C(N)=O)[C@@H](C)O)C(C)C)[C@@H](C)CC` (stereo partly drawn) [Ref. 1, NMeY-Aib-E-G-T-aMeF-T-S-D-K(1,3)-S-I-Aib-L-E-K-Q-R-Q-Iva-E-F-V-R-H-L-L-N-K-Aib-T-R-Q-R-Y-NH2.C16A-G-G-G-G(1,2), reference compound] (H-[NMeY][Aib]EGT[αMeF]TSDK([Gly-Gly-Gly-Gly-Palmitoyl])SI[Aib]LEKQRQ[ξIva]EFVRHLLNK[Aib]TRQRY-NH2), in series [1], the “solubility” value is below 1000 µg/mL and the solubility at 2 h was below 1000 µg/mL.
`CC[C@H](C)[C@H](NC(=O)[C@H](CO)NC(=O)[C@H](CCCCNC(=O)CNC(=O)CNC(=O)CNC(=O)CNC(=O)CCCCCCCCCCCCCCCCC(=O)O)NC(=O)[C@H](CC(=O)O)NC(=O)[C@H](CO)NC(=O)[C@@H](NC(=O)[C@](C)(Cc1ccccc1)NC(=O)[C@@H](NC(=O)CNC(=O)[C@H](CCC(=O)O)NC(=O)C(C)(C)NC(=O)[C@@H](N)Cc1ccc(O)cc1)[C@@H](C)O)[C@@H](C)O)C(=O)NC(C)(C)C(=O)N[C@@H](CC(C)C)C(=O)N[C@@H](CCC(=O)O)C(=O)N[C@@H](CCCCN)C(=O)N[C@@H](CCC(N)=O)C(=O)N[C@@H](CCCNC(=N)N)C(=O)N[C@@H](CCC(N)=O)C(=O)NC(C)(CC)C(=O)N[C@@H](CCC(=O)O)C(=O)N[C@@H](Cc1ccccc1)C(=O)N[C@H](C(=O)N[C@@H](CCCNC(=N)N)C(=O)N[C@@H](Cc1c[nH]cn1)C(=O)N[C@@H](CC(C)C)C(=O)N[C@@H](CC(C)C)C(=O)N[C@@H](CC(N)=O)C(=O)N[C@@H](CCCCN)C(=O)NC(C)(C)C(=O)N[C@H](C(=O)N[C@@H](CCCNC(=N)N)C(=O)N[C@@H](CCC(N)=O)C(=O)N[C@@H](CCCNC(=N)N)C(=O)N[C@@H](Cc1ccc(O)cc1)C(N)=O)[C@@H](C)O)C(C)C` (stereo partly drawn) [Ref. 3, Y-Aib-E-G-T-aMeF-T-S-D-K(1,3)-S-I-Aib-L-E-K-Q-R-Q-Iva-E-F-V-R-H-L-L-N-K-Aib-T-R-Q-R-Y-NH2.C18DA-G-G-G-G(1,2), reference compound] (H-Y[Aib]EGT[αMeF]TSDK([Gly-Gly-Gly-Gly-C18 diacid])SI[Aib]LEKQRQ[ξIva]EFVRHLLNK[Aib]TRQRY-NH2): in series [1], the “solubility” value is below 1000 µg/mL and the solubility at 2 h was below 1000 µg/mL.
